Source: paper PMC4138103 (PLoS ONE, 2014)
Like-named read-outs stand apart in the source and are kept apart here.

Tested on: Sprague-Dawley rats
Assay: Retinoid analyses in liver, serum and kidney
Assay type: in vivo, Rattus norvegicus
Parameters: key to Kidney Retinyl esters, Dose response / Liver All-trans RA, Dose response / Kidney All-trans RA, Dose response / Serum Retinol, Dose response: D: significant dose response (for results, see Table 2); T: significant trend
Conditions: for Emax: Rattus norvegicus; for Kidney All-trans RA / Kidney Retinol / Kidney Retinyl esters / Liver 9-cis-4o-13,14-dh RA / Liver All-trans RA / Liver Retinol / Liver Retinyl esters: group mean, N=5
Method: Retinoids in liver, serum, and kidney were analyzed according to Schmidt et al.. The polar retinoids 9-cis-retinoic acid (9-cis-RA), 13-cis-retinoic acid (13-cis-RA), 13-cis-4-oxo-retinoic acid (13-cis-4-o-RA), 9-cis-4-oxo-13,14-dihydro-retinoic acid (9-cis-4-o-13,14-dh-RA), all-trans retinoic acid (all-trans RA) and the apolar retinoids retinol and retinyl palmitate were extracted by a single liquid-extraction, separated from each other via solid-phase extraction using an aminopropyl phase, and then injected onto two different HPLC systems that were coupled with UV detection. […] The limits of detection (LOD) for all-trans RA and 9c-4o-13,14-dh-RA were 0.7 and 1.0 pmol/g tissue, and 0.3 and 0.6 pmol/ml serum, respectively. Retinol and retinyl palmitate were separated on a J'sphere ODS-H80 (4.6×150 mm, 4 µm particle size) obtained from YMC (Schermbeck, Germany), and were detected at 325 nm. The LOD for retinol and retinyl palmitate were 5.6 and 5.5 pmol/g tissue, and 4.2 and 4.2 pmol/ml serum, respectively.
Data were also analyzed using the BMD method, which is based on dose-response modeling of the full data set using a nested family of exponential and Hill models. The analyses were done on data of males and females combined, using sex as a covariate. […] In that case, different Critical Effect Doses (CEDs) and CEDs at the lowest bound of the confidence interval (CED-L) were generated for each sex. If no difference between sexes is detected, a CED and CED-Ls for the combined data is generated. However, this was also done if the curve fits are close, and separate analyses for males and females were then performed manually. CEDs and CED-Ls were calculated at the predefined Critical Effect Size (CES) of 5% (EFSA standard) or 10%.

[1] = females, total dose 0-1700 mg/kg bw
[2] = females, total dose 10 mg/kg bw
[3] = females, total dose 30 mg/kg bw
[4] = females, total dose 100 mg/kg bw
[5] = females, total dose 300 mg/kg bw
[6] = females, total dose 1000 mg/kg bw
[7] = females, total dose 1700 mg/kg bw

Clc1cc(Cl)c(-c2cc(Cl)c(Cl)c(Cl)c2Cl)cc1Cl [PCB 180, 2,2′,3′,4,4′,5,5′-heptachlorobiphenyl]
Emax (F, model E4, controls vs high dose according to the fitted model, read-out: Maximum response, Liver 9c-4o-13,14-dh-RA amount): -70.3% | Emax (F, model E4, controls vs high dose according to the fitted model, read-out: Maximum response, Liver 9c-4o-13,14-dh-RA concentration): -78.2% | Emax (females, controls vs high dose, fitted model, read-out: Kidney all-trans RA amount, Maximum response): 16.5% | Emax (females, controls vs high dose, fitted model, read-out: Kidney all-trans RA concentration, Maximum response): 19.9% | Emax (females, controls vs high dose, fitted model, read-out: Kidney retinol amount, Maximum response): 26.9% | Emax (females, controls vs high dose, fitted model, read-out: Kidney retinol concentration, Maximum response): 27.8% | Emax (females, controls vs high dose, fitted model, read-out: Liver 9c-4o-13,14-dh-RA amount, Maximum response): -70.3% | Emax (females, controls vs high dose, fitted model, read-out: Liver 9c-4o-13,14-dh-RA conc., Maximum response): -78.2% | Emax (females, controls vs high dose, fitted model, read-out: Liver retinol concentration, Maximum response): -42.9% | Emax (females, controls vs high dose, fitted model, read-out: Liver retinyl esters amount, Maximum response): -29% | Emax (females, controls vs high dose, fitted model, read-out: Liver retinyl esters concentration, Maximum response): -50.9% | Emax (females, controls vs high dose, fitted model, read-out: Serum retinol concentration, Maximum response): 23% | Emax (males, controls vs high dose, fitted model, read-out: Kidney retinol amount, Maximum response): 50.4% | Emax (males, controls vs high dose, fitted model, read-out: Kidney retinol concentration, Maximum response): 52% | Emax (males, controls vs high dose, fitted model, read-out: Kidney retinyl esters amount, Maximum response): 260% | Emax (males, controls vs high dose, fitted model, read-out: Kidney retinyl esters concentration, Maximum response): 254% | Emax (males, controls vs high dose, fitted model, read-out: Liver all-trans RA amount, Maximum response): 93% | Emax (males, controls vs high dose, fitted model, read-out: Liver all-trans RA concentration, Maximum response): 21% | Emax (males, controls vs high dose, fitted model, read-out: Liver retinol amount, Maximum response): -18.1% | Emax (males, controls vs high dose, fitted model, read-out: Liver retinol concentration, Maximum response): -46.8% | Emax (males, controls vs high dose, fitted model, read-out: Liver retinyl esters amount, Maximum response): -45.2% | Emax (males, controls vs high dose, fitted model, read-out: Liver retinyl esters concentration, Maximum response): -62.8% | Emax (model E2, controls vs high dose according to the fitted model, read-out: Maximum response, Kidney retinol amount): 49% | Emax (model E2, controls vs high dose according to the fitted model, read-out: Maximum response, Kidney retinol concentration): 51.9% | Emax (model E2, controls vs high dose according to the fitted model, read-out: Maximum response, Liver all-trans RA amount): 92.7% | Emax (model E2, controls vs high dose according to the fitted model, read-out: Maximum response, Liver all-trans RA concentration): 20.7% | Emax (model E2, controls vs high dose according to the fitted model, read-out: Maximum response, Liver retinol amount): -18.5% | Emax (model E2, controls vs high dose according to the fitted model, read-out: Maximum response, Liver retinyl esters amount): -45.7% | Emax (model E4, controls vs high dose according to the fitted model, read-out: Maximum response, Kidney retinyl esters amount): 253% | Emax (model E4, controls vs high dose according to the fitted model, read-out: Maximum response, Kidney retinyl esters concentration): 256% | Emax (model E4, controls vs high dose according to the fitted model, read-out: Maximum response, Liver retinol concentration): -44.6% | Emax (model E4, controls vs high dose according to the fitted model, read-out: Maximum response, Liver retinyl esters concentration): -63.4% | Liver 9c-4o-13,14-dh-RA concentration, max. decrease (females): 78% | Liver retinol concentration, max. decrease (females): 43% | Dose response, Kidney All-trans RA [1]: D, T | Dose response, Kidney Retinol [1]: D, T | Dose response, Liver 9-cis-4o-13,14-dh RA [1]: D, T | Dose response, Liver Retinyl esters [1]: D, T | Kidney All-trans RA, Dose response [1]: D | Kidney Retinol, Dose response [1]: D, T | Liver 9-cis-4o-13,14-dh-RA, Dose response [1]: D, T | Liver Retinol, Dose response [1]: D, T | Liver Retinyl esters, Dose response [1]: D, T | Serum Retinol, Dose response [1]: D | Kidney All-trans RA (females, total dose 3 mg/kg bw): 19.8 pmol | Kidney Retinol (females, total dose 3 mg/kg bw): 8.72 nmol | Kidney Retinyl esters (females, total dose 3 mg/kg bw): 0.77 nmol | Liver 9-cis-4o-13,14-dh RA (females, total dose 3 mg/kg bw): 887 pmol | Liver All-trans RA (females, total dose 3 mg/kg bw): 267 pmol | Liver Retinol (females, total dose 3 mg/kg bw): 0.26 µmol | Liver Retinyl esters (females, total dose 3 mg/kg bw): 11.1 µmol | Kidney All-trans RA [2]: 18.2 pmol | Kidney Retinol [2]: 8.07 nmol | Kidney Retinyl esters [2]: 0.88 nmol | Liver 9-cis-4o-13,14-dh RA [2]: 665 pmol | Liver All-trans RA [2]: 239 pmol | Liver Retinol [2]: 0.23 µmol | Liver Retinyl esters [2]: 9.31 µmol | Kidney All-trans RA [3]: 19.9 pmol | Kidney Retinol [3]: 9.25 nmol | Kidney Retinyl esters [3]: 0.82 nmol | Liver 9-cis-4o-13,14-dh RA [3]: 691 pmol | Liver All-trans RA [3]: 231 pmol | Liver Retinol [3]: 0.25 µmol | Liver Retinyl esters [3]: 8.81 µmol | Kidney All-trans RA [4]: 20.6 pmol | Kidney Retinol [4]: 8.42 nmol | Kidney Retinyl esters [4]: 0.71 nmol | Liver 9-cis-4o-13,14-dh RA [4]: 543 pmol | Liver All-trans RA [4]: 252 pmol | Liver Retinol [4]: 0.24 µmol | Liver Retinyl esters [4]: 9.73 µmol | Kidney All-trans RA [5]: 20.2 pmol | Kidney Retinol [5]: 8.45 nmol | Kidney Retinyl esters [5]: 0.73 nmol | Liver 9-cis-4o-13,14-dh RA [5]: 357 pmol | Liver All-trans RA [5]: 332 pmol | Liver Retinol [5]: 0.24 µmol | Liver Retinyl esters [5]: 8.90 µmol | Kidney All-trans RA [6]: 21.5 pmol | Kidney Retinol [6]: 8.95 nmol | Kidney Retinyl esters [6]: 0.74 nmol | Liver 9-cis-4o-13,14-dh RA [6]: 226 pmol | Liver All-trans RA [6]: 296 pmol | Liver Retinol [6]: 0.24 µmol | Liver Retinyl esters [6]: 8.28 µmol | Kidney All-trans RA [7]: 22.0 pmol | Kidney Retinol [7]: 10.3 nmol | Kidney Retinyl esters [7]: 0.75 nmol | Liver 9-cis-4o-13,14-dh RA [7]: 261 pmol | Liver All-trans RA [7]: 289 pmol | Liver Retinol [7]: 0.21 µmol | Liver Retinyl esters [7]: 6.90 µmol | Kidney all-trans RA amount, CED (females, CES 5%, total dose based): 494 mg/kg bw
